# Legend:
# [1] = tested on: green foxtail; assay: Test C postemergence; assay type: in vivo, Setaria viridis; conditions: 10 days
# Method in brief: (§1)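 Seeds sown in loam soil–sand blend received a directed preemergence soil spray of test chemical in non-phytotoxic solvent with surfactant; postemergence plants (2–10 cm, one- to two-leaf stage) were sprayed with the same formulation. Greenhouse-held 10 days, then visually rated for injury versus untreated controls, 0 (no effect) to 100 (complete control).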
# [2] = tested on: blackgrass; assay: Test C preemergence; assay type: in vivo, Alopecurus myosuroides; conditions: for Plant response rating, Blackgrass: Preemergence; for Blackgrass plant response rating: preemergence
# Method in brief: as §1
# [3] = tested on: kochia; assay: Test C postemergence; assay type: in vivo, Bassia scoparia; conditions: 10 days
# Method in brief: as §1
# [4] = tested on: ryegrass, Italian; assay: Test C preemergence; assay type: in vivo, Lolium multiflorum; conditions: 0 to 100 scale (0 no effect, 100 complete control); for Ryegrass, Italian plant response rating: preemergence
# Method in brief: as §1
# [5] = tested on: kochia; assay: Test C preemergence; assay type: in vivo, Bassia scoparia; conditions: for Plant response rating, Kochia: Preemergence; for Kochia plant response rating: preemergence
# Method in brief: as §1
# [6] = tested on: corn; assay: Test C preemergence; assay type: in vivo, Zea mays; conditions: for Plant response rating, Corn: Preemergence; for Corn plant response rating: preemergence
# Method in brief: as §1
# [7] = tested on: ryegrass, Italian; assay: Test C postemergence; assay type: in vivo, Lolium multiflorum; conditions: 10 days
# Method in brief: as §1
# [8] = tested on: wheat; assay: Test C postemergence; assay type: in vivo, Triticum aestivum; conditions: 10 days
# Method in brief: as §1
# [9] = tested on: rice; assay: Test D flooded paddy test; assay type: in vivo, Oryza sativa; conditions: 250 g ai/ha, applied to paddy water, visual rating after 13 to 14 days, scale 0 to 100 (0 no effect, 100 complete control)
# Method in brief: (§2)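 At the 2-leaf stage, floodwater 3 cm deep received the test compound; that depth persisted throughout. Plants scored visually 13 to 14 days on, 0 (no effect) to 100 (complete control), dash indicating no result.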
# [10] = tested on: oat, wild; assay: Test C postemergence; assay type: in vivo, Avena fatua; conditions: 10 days
# Method in brief: as §1
# [11] = tested on: ragweed; assay: Test C postemergence; assay type: in vivo, Ambrosia artemisiifolia; conditions: 10 days
# Method in brief: as §1
# [12] = tested on: wheat; assay: Test C preemergence; assay type: in vivo, Triticum aestivum; conditions: for Plant response rating, Wheat: Preemergence; for Wheat plant response rating: preemergence
# Method in brief: as §1
# [13] = tested on: pigweed, palmer; assay: Test C postemergence; assay type: in vivo, Amaranthus palmeri; conditions: 10 days
# Method in brief: as §1
# [14] = tested on: pigweed, palmer; assay: Test C preemergence; assay type: in vivo, Amaranthus palmeri; conditions: 0 to 100 scale (0 no effect, 100 complete control); for Pigweed, Palmer plant response rating: preemergence
# Method in brief: as §1
# [15] = tested on: ducksalad; assay: Test D flooded paddy test; assay type: in vivo, Heteranthera limosa; conditions: 250 g ai/ha, applied to paddy water, visual rating after 13 to 14 days, scale 0 to 100 (0 no effect, 100 complete control)
# Method in brief: as §2
# [16] = tested on: soybean; assay: Test C preemergence; assay type: in vivo, Glycine max; conditions: for Plant response rating, Soybean: Preemergence; for Soybean plant response rating: preemergence
# Method in brief: as §1
# [17] = tested on: barnyardgrass; assay: Test D flooded paddy test; assay type: in vivo, Echinochloa crus-galli; conditions: 250 g ai/ha, applied to paddy water, visual rating after 13 to 14 days, scale 0 to 100 (0 no effect, 100 complete control)
# Method in brief: as §2
# [18] = tested on: horseweed; assay: Test C postemergence; assay type: in vivo, Erigeron canadensis; conditions: 10 days
# Method in brief: as §1
# [19] = tested on: corn; assay: Test C postemergence; assay type: in vivo, Zea mays; conditions: 10 days
# Method in brief: as §1
# [20] = tested on: barnyardgrass; assay: Test C postemergence; assay type: in vivo, Echinochloa crusgalli; conditions: 10 days
# Method in brief: as §1
# [21] = tested on: green foxtail; assay: Test C preemergence; assay type: in vivo, Setaria viridis; conditions: for Plant response rating, Foxtail, Green: Preemergence; for Foxtail, Green plant response rating: preemergence
# Method in brief: as §1
# [22] = tested on: barnyardgrass; assay: Test C preemergence; assay type: in vivo, Echinochloa crusgalli; conditions: for Plant response rating, Barnyardgrass: Preemergence; for Barnyardgrass plant response rating: preemergence
# Method in brief: as §1
# [23] = tested on: blackgrass; assay: Test C postemergence; assay type: in vivo, Alopecurus myosuroides; conditions: 10 days
# Method in brief: as §1
# [24] = tested on: sedge, umbrella; assay: Test D flooded paddy test; assay type: in vivo, Cyperus difformis; conditions: 250 g ai/ha, applied to paddy water, visual rating after 13 to 14 days, scale 0 to 100 (0 no effect, 100 complete control)
# Method in brief: as §2
# [25] = tested on: galium; assay: Test C postemergence; assay type: in vivo, Galium aparine; conditions: 10 days
# Method in brief: as §1
# [26] = tested on: soybean; assay: Test C postemergence; assay type: in vivo, Glycine max; conditions: 10 days
# Method in brief: as §1
# [27] = tested on: ragweed; assay: Test C preemergence; assay type: in vivo, Ambrosia artemisiifolia; conditions: for Plant response rating, Ragweed: Preemergence; for Ragweed plant response rating: preemergence
# Method in brief: as §1
# [28] = tested on: oat, wild; assay: Test C preemergence; assay type: in vivo, Avena fatua; conditions: for Plant response rating, Oat, Wild: Preemergence; for Oat, Wild plant response rating: preemergence
# Method in brief: as §1
# [29] = 125 g ai/ha, postemergence, 0 to 100 scale, 0 no effect, 100 complete control
# [30] = Postemergence, 500 g ai/ha, visual 0 to 100 scale (0 no effect, 100 complete control)
# [31] = 500 g ai/ha, visual rating after 10 days, 0 to 100 scale (0 no effect, 100 complete control)
# [32] = Test C, 125 g ai/ha, 0 to 100 scale (0 no effect, 100 complete control)
# [33] = Preemergence, 500 g ai/ha, visual rating after 10 days
# [34] = 500 g ai/ha, postemergence, 0 to 100 scale (0 no effect, 100 complete control)
# [35] = Postemergence, 125 g ai/ha, 0 to 100 scale (0 no effect, 100 complete control)
# [36] = 500 g ai/ha, 0 to 100 scale (0 no effect, 100 complete control)
# [37] = 125 g ai/ha, 0 to 100 scale, 0 no effect, 100 complete control
smiles,measurement,setting,value
"Cc1ccc(-n2cnc(C(C)(C)C)n2)cc1C(=O)N1CC(C(F)(F)F)Oc2c(Cl)cccc21 (single isomer, unassigned) [Compound 192]","Plant response rating, Foxtail, Green",[1]; [29],10
same,"Plant response rating, Foxtail, Green",[1]; [30],80
same,"Plant response rating, Blackgrass",[2]; [31],80
same,Blackgrass plant response rating,[2]; [32],70
same,"Plant response rating, Kochia",[3]; [29],80
same,"Plant response rating, Kochia",[3]; [30],100
same,"Plant response rating, Ryegrass, Italian",[4]; [33],90
same,"Ryegrass, Italian plant response rating","[4]; Test C, 125 g ai/ha",90
same,"Plant response rating, Kochia",[5]; [31],100
same,Kochia plant response rating,[5]; [32],60
same,"Plant response rating, Corn",[6]; [31],20
same,Corn plant response rating,[6]; [32],20
same,"Plant response rating, Ryegrass, Italian",[7]; [29],40
same,"Plant response rating, Ryegrass, Italian",[7]; [30],50
same,"Plant response rating, Wheat",[8]; [29],20
same,"Plant response rating, Wheat",[8]; [30],20
same,"Plant response rating, Rice (Flood)",[9],0
same,"Plant response rating, Oat, Wild",[10]; [29],20
same,"Plant response rating, Oat, Wild",[10]; [30],50
same,"Plant response rating, Ragweed",[11]; [29],90
same,"Plant response rating, Ragweed",[11]; [30],100
same,"Plant response rating, Wheat",[12]; [31],30
same,Wheat plant response rating,[12]; [32],0
same,"Plant response rating, Pigweed, Palmer",[13]; [29],90
same,"Plant response rating, Pigweed, Palmer",[13]; [30],100
same,"Plant response rating, Pigweed, Palmer",[14]; [33],100
same,"Pigweed, Palmer plant response rating","[14]; Test C, 125 g ai/ha",90
same,"Plant response rating, Ducksalad (Flood)",[15],0
same,"Plant response rating, Soybean",[16]; [31],90
same,Soybean plant response rating,[16]; [32],30
same,"Plant response rating, Barnyardgrass (Flood)",[17],0
same,"Plant response rating, Horseweed",[18]; [29],0
same,"Plant response rating, Horseweed",[18]; [30],30
same,"Plant response rating, Corn",[19]; [29],10
same,"Plant response rating, Corn",[19]; [30],20
same,"Plant response rating, Barnyardgrass",[20]; [29],20
same,"Plant response rating, Barnyardgrass",[20]; [30],50
same,"Plant response rating, Foxtail, Green",[21]; [31],100
same,"Foxtail, Green plant response rating",[21]; [32],100
same,"Plant response rating, Barnyardgrass",[22]; [31],90
same,Barnyardgrass plant response rating,[22]; [32],60
same,"Plant response rating, Blackgrass",[23]; [29],30
same,"Plant response rating, Blackgrass",[23]; [30],30
same,"Plant response rating, Sedge, Umbrella (Flood)",[24],0
same,"Plant response rating, Galium",[25]; [29],100
same,"Plant response rating, Galium",[25]; [30],100
same,"Plant response rating, Soybean",[26]; [29],100
same,"Plant response rating, Soybean",[26]; [30],100
same,"Plant response rating, Ragweed",[27]; [31],80
same,Ragweed plant response rating,[27]; [32],10
same,"Plant response rating, Oat, Wild",[28]; [31],90
same,"Oat, Wild plant response rating",[28]; [32],40
Cc1ncc(-c2cccc(C(=O)N3C[C@H](C)Oc4c(Cl)cccc43)c2)o1 [Compound 352],"Plant response rating, Foxtail, Green",[1]; [34],10
same,"Plant response rating, Foxtail, Green",[1]; [35],20
same,Blackgrass plant response rating,[2]; [36],0
same,"Plant response rating, Blackgrass",[2]; [37],0
same,"Plant response rating, Kochia",[3]; [34],50
same,"Plant response rating, Kochia",[3]; [35],40
same,"Ryegrass, Italian plant response rating",[4]; 500 g ai/ha,40
same,Kochia plant response rating,[5]; [36],0
same,"Plant response rating, Kochia",[5]; [37],0
same,Corn plant response rating,[6]; [36],0
same,"Plant response rating, Corn",[6]; [37],0
same,"Plant response rating, Ryegrass, Italian",[7]; [34],10
same,"Plant response rating, Ryegrass, Italian",[7]; [35],10
same,"Plant response rating, Wheat",[8]; [34],10
same,"Plant response rating, Wheat",[8]; [35],10
same,"Plant response rating, Rice (Flood)",[9],0
same,"Plant response rating, Oat, Wild",[10]; [34],0
same,"Plant response rating, Oat, Wild",[10]; [35],0
same,"Plant response rating, Ragweed",[11]; [34],20
same,"Plant response rating, Ragweed",[11]; [35],20
same,Wheat plant response rating,[12]; [36],0
same,"Plant response rating, Wheat",[12]; [37],0
same,"Plant response rating, Pigweed, Palmer",[13]; [34],20
same,"Pigweed, Palmer plant response rating",[14]; 500 g ai/ha,10
same,"Plant response rating, Ducksalad (Flood)",[15],0
same,Soybean plant response rating,[16]; [36],0
same,"Plant response rating, Soybean",[16]; [37],0
same,"Plant response rating, Barnyardgrass (Flood)",[17],0
same,"Plant response rating, Horseweed",[18]; [34],10
same,"Plant response rating, Horseweed",[18]; [35],0
same,"Plant response rating, Corn",[19]; [34],0
same,"Plant response rating, Corn",[19]; [35],0
same,"Plant response rating, Barnyardgrass",[20]; [34],10
same,"Plant response rating, Barnyardgrass",[20]; [35],10
same,"Foxtail, Green plant response rating",[21]; [36],40
same,"Plant response rating, Foxtail, Green",[21]; [37],0
same,Barnyardgrass plant response rating,[22]; [36],0
same,"Plant response rating, Barnyardgrass",[22]; [37],0
same,"Plant response rating, Blackgrass",[23]; [34],0
same,"Plant response rating, Blackgrass",[23]; [35],0
same,"Plant response rating, Sedge, Umbrella (Flood)",[24],0
same,"Plant response rating, Galium",[25]; [34],50
same,"Plant response rating, Galium",[25]; [35],60
same,"Plant response rating, Soybean",[26]; [34],90
same,"Plant response rating, Soybean",[26]; [35],80
same,Ragweed plant response rating,[27]; [36],0
same,"Plant response rating, Ragweed",[27]; [37],40
same,"Oat, Wild plant response rating",[28]; [36],0
same,"Plant response rating, Oat, Wild",[28]; [37],0

# Reference: patent US20260262643A1, “HERBICIDAL BENZOXAZINES” (FMC CORPORATION, priority 2022, published 2026)
